ChEMBL document CHEMBL2074522, “Role of P-glycoprotein-mediated secretion in absorptive drug permeability: An approach using passive membrane permeability and affinity to P-glycoprotein” (J Pharm Sci, 1999)
pKi: −log10 of the molar value.

Molecular target: ATP-dependent translocase ABCB1 (Homo sapiens, UniProt P08183)
Assay: TP_TRANSPORTER: inhibition of Verapamil binding in membranes from Vinblastine-induced Caco-2 cells
Format: functional, cell membranes, Membrane

Chain of ATP-dependent translocase ABCB1 (P08183 whole entry): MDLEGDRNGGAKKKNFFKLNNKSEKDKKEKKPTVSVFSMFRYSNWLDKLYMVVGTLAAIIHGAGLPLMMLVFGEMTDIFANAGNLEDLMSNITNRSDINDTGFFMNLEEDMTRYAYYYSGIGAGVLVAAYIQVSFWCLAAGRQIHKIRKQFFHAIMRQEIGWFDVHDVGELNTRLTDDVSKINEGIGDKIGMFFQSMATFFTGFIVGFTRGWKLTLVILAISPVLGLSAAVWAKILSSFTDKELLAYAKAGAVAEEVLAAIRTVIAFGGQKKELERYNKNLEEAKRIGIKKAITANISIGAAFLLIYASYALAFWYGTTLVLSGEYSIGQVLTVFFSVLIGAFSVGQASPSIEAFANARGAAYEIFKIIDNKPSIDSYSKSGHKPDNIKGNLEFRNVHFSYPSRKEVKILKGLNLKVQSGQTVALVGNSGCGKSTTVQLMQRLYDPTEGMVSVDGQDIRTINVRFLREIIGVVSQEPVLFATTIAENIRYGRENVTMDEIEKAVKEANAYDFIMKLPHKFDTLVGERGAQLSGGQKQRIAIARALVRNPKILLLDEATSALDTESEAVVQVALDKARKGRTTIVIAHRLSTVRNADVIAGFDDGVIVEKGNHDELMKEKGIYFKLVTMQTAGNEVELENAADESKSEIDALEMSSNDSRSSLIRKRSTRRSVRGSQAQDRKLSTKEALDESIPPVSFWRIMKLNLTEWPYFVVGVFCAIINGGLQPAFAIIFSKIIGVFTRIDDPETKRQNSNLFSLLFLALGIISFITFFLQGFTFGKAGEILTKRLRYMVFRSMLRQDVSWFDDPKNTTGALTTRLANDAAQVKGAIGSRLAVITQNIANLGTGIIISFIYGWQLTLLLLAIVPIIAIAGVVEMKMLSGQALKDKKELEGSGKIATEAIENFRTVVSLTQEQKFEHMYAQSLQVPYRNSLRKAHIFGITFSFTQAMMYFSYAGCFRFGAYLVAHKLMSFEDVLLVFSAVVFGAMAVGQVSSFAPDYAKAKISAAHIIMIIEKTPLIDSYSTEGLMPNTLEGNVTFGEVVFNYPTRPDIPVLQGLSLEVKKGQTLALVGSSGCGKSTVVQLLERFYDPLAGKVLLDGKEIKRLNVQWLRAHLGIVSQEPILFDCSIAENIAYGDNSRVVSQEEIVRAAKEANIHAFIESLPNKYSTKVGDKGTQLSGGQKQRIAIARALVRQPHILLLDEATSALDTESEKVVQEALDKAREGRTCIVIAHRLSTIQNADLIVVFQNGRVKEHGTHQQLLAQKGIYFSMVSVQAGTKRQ

In the case of `CC(C)NCC(O)COc1ccc(CCNC(=O)NC(C)C)cc1` (configuration not stated) [PAFENOLOL], the pKi (read-out: Ki1) was 5.26 and the pKi (read-out: Ki2) was 2.49.
